Measured values: patent publication US20260166045A1, “COMBINATION THERAPY COMPRISING GSPT1-DIRECTED MOLECULAR GLUE DEGRADERS AND PI3K/AKT/mTOR PATHWAY INHIBITORS” (Monte Rosa Therapeutics, Inc., priority 2022, published 2026)

How the values were obtained:
[1] = system: MDA-MB-231 cell line; assay: CellTiter-Glo 2.0 cell viability, 7x7 combination dose response matrix, synergy scoring; type: cell-based; conditions: MDA-MB-231; combined with M2698 41-10000 nM; first compound 0.41-100 nM
Excerpt: (§1) A study was undertaken to determine whether the combination of a GSPT1-directed MGD and an inhibitor of the PI3K/AKT/mTOR pathway could be effective in killing cancer cells and whether certain combination could elicit a greater than additive effect on cell killing.
(§2) FIG. 1 is a flow diagram of the method used to assess cancer cell killing by a combination of a GSPT1-directed MGD and an inhibitor of the PI3K/AKT/mTOR pathway. Certain of the materials and equipment used in the studies are presented in Table 3 and the cell lines used are presented in Table 4.
(§3) All assays were run in triplicate. Each 384-well plate accommodated six 7×7 dose response matrices (FIG. 2). All compound handling was performed using an Echo 650 Series Acoustic Liquid Handler, which enables fully automated, precise, contact-free acoustic transfer in volumes as low as 2.5 nL.
(§4) The following protocol was used for cell plating: • 1. Warm media to room temperature or 37° C. • 2. Prepare complete phenol-free media by adding 10% FBS+1% Pen-Strep to RPMI 1640 Medium or DMEM. • 3. Aspirate media from T175 tissue culture flask and rinse with 10 ml PBS. • 4. Aspirate PBS and add 2 mL 0.25% trypsin. Incubate the flask at 37° C. for 5 min or until cells are detached. • 5. Add 10 mL complete media to the flask to neutralize the trypsin, then collect cells in a 50 mL conical tube. • 6. Centrifuge cells at 300 g for 5 min. Aspirate media and suspend cell pellet in fresh media. Use cell strainer to strain cells into a new 50 mL conical tube. • 7. […] Mix 100 uL cell suspension with 100 uL trypan blue (1:1) and pipette 20 μL of the mixture into each of 2 counting chambers on a slide. Insert slide. • b. Adjust focus and record the live cell count. At least 2 independent measurements should be taken. […] Cell viability should be greater than 90%. […] Dilute cell suspension to the desired concentration (20000 cells/mL) using complete phenol-free media. Prepare 10 mL cell suspension per plate+an extra 10 mL for priming the liquid handler. • 9. Dispense cells into 384-well plates using the liquid handler at 25 uL/well (500 cells/well). 3 plates should be prepared per compound plate to be treated. • 10. Cells should be dispensed into columns 1-23 only. Media only (no cells) should be dispensed into column 24. • 11. Allow plates to rest at RT for 30 minutes before transferring to the incubator. Incubate cells overnight at 37° C., 95% humidity, and 5% CO2.
(§5) Compound plates were prepared as follows using an Echo 650 Series Acoustic Liquid Handler. • 1. A compound plate containing 7-point dose responses of each compound to be treated is first prepared from stock compounds. • 2. The cell plates are treated with compounds according to the following maps, where the first compound is added across all six 7 by 7 dose response matrices, and its concentration varies by row (FIG. 2; top matrix), whereas the second compound varies for each dose response matrix, and its concentration varies by column (FIG. 2; bottom matrix). Each cell plate receives one Compound A and six different Compound Bs. • 3. To prepare a compound plate, 384-well PP plate with stock compounds (highest concentration) is prepared. Compounds are diluted 1:1000 in the cell plates, e.g. 10 mM on compound plate will be 10 uM on cell plate. A 384-well LDV plate with pre-determined volumes of DMSO is prepared. Echo is used to dilute stock compounds from PP plate into LDV plate to prepare 7-point dose responses.
(§6) Compounds were added to the cells and cell viability was measured after 72 hour incubation using CellTiter-Glo 2.0 Cell Viability Assay (Promega): • 1. For a compound addition, Echo is used to transfer 25 nL from the compound plate wells to the cell plates according to the plate maps shown in FIG. 2. Cell plates are treated in triplicate. Each well of the cell plate has 25 uL media (1:1000 dilution). Incubate cells post-treatment at 37° C., 95% humidity, and 5% CO2 for 72 hrs (step 106). • 2. […]

[2] = system: MCF7 cell line; assay: as above; type: cell-based
Excerpt: as §1, §2, §3, §4, §5, §6

[3] = system: CAL51 cell line; assay: as above; type: cell-based
Excerpt: as §1, §2, §3, §4, §5, §6

[4] = system: MDA-MB-157 cell line; assay: as above; type: cell-based; conditions: combined with M2698 41-10000 nM, first compound 0.41-100 nM
Excerpt: as §1, §2, §3, §4, §5, §6

[5] = system: DB cell line; assay: CTG viability, 11x11 concentration matrix, Loewe synergy (lymphoma); conditions: inhibitor combined with compound 1-1, 11x11 matrix, 72 hours
Method: (§7) Cells were cultured in the media recommended by the supplier.
(§8) On the day before compound addition, cells were seeded in 384-well-plates (white with clear flat bottom) at the densities indicated in Table 6 in 40 μL of growth medium. The next day, compounds were dispensed from 10 mM stocks using a HP D300 dispenser according to the concentration matrices described above. For each cell line, the compound concentration matrices were dispensed twice as side-by-side duplicates on one 384-well-plate. In addition, each plate contained 14 wells with only growth medium and 44 wells with cells treated with DMSO alone to calculate the average background and maximal signals, respectively. The final DMSO concentration was normalized to 0.2% across the plates. Plates were then incubated for 72 hours. CellTiter-Glo® Luminescent Cell Viability Assay (CTG, Promega G7570) reagent was prepared according to the manufacturer's instructions. Plates were equilibrated to room temperature for approximately 30 minutes, 25 μL CTG reagent was added to each well and plates were mixed on an orbital shaker for 10 minutes to allow for cell lysis. After further incubation for 20 minutes at room temperature, the clear bottoms of the plates were pasted with white back seal and luminescence was read on an EnVision plate reader (measurement time 0.1 seconds).

[6] = system: RAJI cell line; assay: as above; conditions: inhibitor combined with compound 1-1, 11x11 matrix, 72 hours
Method: as §7, §8

[7] = system: SU-DHL-6 cell line; assay: as above; conditions: inhibitor combined with compound 1-1, 11x11 matrix, 72 hours
Method: as §7, §8

[8] = system: DOHH-2 cell line; assay: as above; conditions: inhibitor combined with compound 1-1, 11x11 matrix, 72 hours
Method: as §7, §8

[9] = system: WSU-DLCL2 cell line; assay: as above; conditions: inhibitor combined with compound 1-1, 11x11 matrix, 72 hours
Method: as §7, §8

[10] = MCF7, combined with Alpelisib 41-10000 nM, first compound 0.41-33.33 nM
[11] = MCF7, combined with M2698 41-10000 nM, first compound 0.41-100 nM
[12] = CAL51, combined with Alpelisib 41-10000 nM, first compound 0.41-33.33 nM
[13] = CAL51, combined with M2698 41-10000 nM, first compound 0.41-100 nM
[14] = MCF7, combined with Alpelisib 41-10000 nM, first compound 0.41-100 nM
[15] = MCF7, combined with Capivasertib 41-10000 nM, first compound 0.41-100 nM
[16] = MCF7, combined with GNE-477 41-10000 nM, first compound 0.41-100 nM
[17] = MCF7, combined with HS173 41-10000 nM, first compound 0.41-100 nM
[18] = MCF7, combined with Serabelisib 41-10000 nM, first compound 0.41-100 nM
[19] = CAL51, combined with Alpelisib 41-10000 nM, first compound 0.41-100 nM
[20] = CAL51, combined with Capivasertib 41-10000 nM, first compound 0.41-100 nM
[21] = CAL51, combined with GNE-477 41-10000 nM, first compound 0.41-100 nM
[22] = CAL51, combined with HS173 41-10000 nM, first compound 0.41-100 nM
[23] = CAL51, combined with Serabelisib 41-10000 nM, first compound 0.41-100 nM

O=C1CCC(N2Cc3ccc(COC(=O)Nc4ccc(F)c(OC(F)(F)F)c4)cc3C2=O)C(=O)N1 (stereo not shown) [Compound 1-2, [2-(2,6-dioxopiperidin-3-yl)-3-oxo-2,3-dihydro-1H-isoindol-5-yl]methyl N-[4-fluoro-3-(trifluoromethoxy)phenyl]carbamate]
Mean Bliss synergy score [1]: 1.26
Mean Loewe synergy score [1]: 3.82
Mean Bliss synergy score [2, 10]: 14.93
Mean Loewe synergy score [2, 10]: 11.94
Mean Bliss synergy score [2, 11]: 19.15
Mean Loewe synergy score [2, 11]: 12.31
Mean Bliss synergy score [3, 12]: 13.24
Mean Loewe synergy score [3, 12]: 10.04
Mean Bliss synergy score [3, 13]: 20.45
Mean Loewe synergy score [3, 13]: 10.06
Mean Bliss synergy score ([3]; combined with M2698 (41 nM to 10 uM), CAL51 cell line, mean across dose response matrix, 72 hrs): 20.45
Mean Bliss synergy score [4]: 4.58
Mean Loewe synergy score [4]: 5.68

O=C1CCC(N2Cc3ccc(COC(=O)Nc4ccc(F)c(OC(F)F)c4)cc3C2=O)C(=O)N1 (stereo not shown) [Compound 1-3, [2-(2,6-dioxopiperidin-3-yl)-3-oxo-2,3-dihydro-1H-isoindol-5-yl]methyl N-[3-(difluoromethoxy)-4-fluorophenyl]carbamate]
Mean Bliss synergy score [1]: 5.67
Mean Loewe synergy score [1]: 4.75
Mean Bliss synergy score [2, 10]: 17.71
Mean Loewe synergy score [2, 10]: 10.32
Mean Bliss synergy score [2, 11]: 25.34
Mean Loewe synergy score [2, 11]: 13.77
Mean Bliss synergy score ([2]; combined with Alpelisib (41 nM to 10 uM), MCF7 cell line, mean across dose response matrix, 72 hrs): 17.71
Mean Bliss synergy score [3, 12]: 13.63
Mean Loewe synergy score [3, 12]: 8.54
Mean Bliss synergy score [3, 13]: 30.29
Mean Loewe synergy score [3, 13]: 15.43
Mean Bliss synergy score [4]: 6.71
Mean Loewe synergy score [4]: 6.57

Cc1cc(C)cc(NC(=O)OCc2ccc3c(c2)C(=O)N(C2CCC(=O)NC2=O)C3)c1 (stereo not shown) [Compound 1-4, [2-(2,6-dioxopiperidin-3-yl)-3-oxo-2,3-dihydro-1H-isoindol-5-yl]methyl N-(3,5-dimethylphenyl)carbamate]
Mean Bliss synergy score [1]: 2.10
Mean Loewe synergy score [1]: 2.36
Mean Bliss synergy score [2, 10]: 9.41
Mean Loewe synergy score [2, 10]: 7.90
Mean Bliss synergy score [2, 14]: 17.96
Mean Loewe synergy score [2, 14]: 9.59
Mean Bliss synergy score [2, 15]: 17.17
Mean Loewe synergy score [2, 15]: 9.85
Mean Bliss synergy score [2, 16]: 9.39
Mean Loewe synergy score [2, 16]: 7.58
Mean Bliss synergy score [2, 17]: 3.51
Mean Loewe synergy score [2, 17]: 1.27
Mean Bliss synergy score [2, 11]: 14.55
Mean Loewe synergy score [2, 11]: 7.79
Mean Bliss synergy score [2, 18]: 4.26
Mean Loewe synergy score [2, 18]: 1.36
Mean Bliss synergy score [3, 12]: 10.76
Mean Loewe synergy score [3, 12]: 7.63
Mean Bliss synergy score [3, 19]: 36.63
Mean Loewe synergy score [3, 19]: 11.29
Mean Bliss synergy score [3, 20]: 30.43
Mean Loewe synergy score [3, 20]: 14.67
Mean Bliss synergy score [3, 21]: 15.82
Mean Loewe synergy score [3, 21]: 6.64
Mean Bliss synergy score [3, 22]: 8.74
Mean Loewe synergy score [3, 22]: 1.29
Mean Bliss synergy score [3, 13]: 16.31
Mean Loewe synergy score [3, 13]: 8.47
Mean Bliss synergy score [3, 23]: 5.71
Mean Loewe synergy score [3, 23]: −1.80
Mean Bliss synergy score ([3]; combined with Alpelisib (41 nM to 10 uM), CAL51 cell line, mean across dose response matrix, 72 hrs): 36.63
Mean Bliss synergy score [4]: 4.94
Mean Loewe synergy score [4]: 5.54

O=C1CCC(N2Cc3ccc(COC(=O)Nc4cccc(OC(F)(F)F)c4)cc3C2=O)C(=O)N1 (stereo not shown) [Compound 1-5, [2-(2,6-dioxopiperidin-3-yl)-3-oxo-2,3-dihydro-1H-isoindol-5-yl]methyl N-[3-(trifluoromethoxy)phenyl]carbamate]
Mean Bliss synergy score [1]: 1.74
Mean Loewe synergy score [1]: 3.68
Mean Bliss synergy score [2, 10]: −2.19
Mean Loewe synergy score [2, 10]: 6.06
Mean Bliss synergy score [2, 11]: 5.35
Mean Loewe synergy score [2, 11]: 12.24
Mean Bliss synergy score [3, 12]: −0.17
Mean Loewe synergy score [3, 12]: 7.63
Mean Bliss synergy score [3, 13]: 7.95
Mean Loewe synergy score [3, 13]: 11.33
Mean Bliss synergy score [4]: 2.85
Mean Loewe synergy score [4]: 4.08

CC[C@H](Nc1ncnc2nc[nH]c12)c1nc2cccc(F)c2c(=O)n1-c1ccccc1 [idelalisib, 5-fluoro-3-phenyl-2-[(1S)-1-(7H-purin-6-ylamino)propyl]quinazolin-4-one]
Mean Loewe synergy score, DB [5]: −3.25
Mean Loewe synergy score, RAJI [6]: 3.47
Mean Loewe synergy score, SUDHL6 [7]: 5.75
Mean Loewe synergy score, DOHH2 [8]: 4.04
Mean Loewe synergy score, WSU-DLCL2 [9]: −2.08
